# Experimental data published in PMC10703812, “Understanding the molecular mechanisms of odorant binding and activation of the human OR52 family” (Nature Communications, 2023).
# “And” between values parts separate entries of the source, which are not always exact repeats. Equal values may be shown once.
# What was measured:
# Assay type in all cases: cell-based, human
# [1] = tested on: OR52cs F14A / F96A / F170A; experiment: cAMP signaling assay, mutant
# Procedure: (§1) For cAMP assay, CRE luciferase assay, and surface ELISA, the full-length OR52cs construct was cloned into the pcDNA3.1 vector. The Lucy signal sequence and FLAG peptide sequence were added to the N-terminus. Mutant constructs were generated by site-directed mutagenesis. For BRET assay, eYFP was added at the C-terminus of OR52cs with a GGGGS linker. Rluc was added to Gα for resonance partner (after L99 for Gαs, and I100 for Gαolf, respectively, with GGGGS linker back and forth).
# (§2) Hana3A cells were seeded on 96-well white microplates and transfected with OR52cs or the corresponding mutants and cAMP sensor (Promega). The medium was exchanged with CO2-independent medium (Gibco) supplemented with 0.375 mg ml^−1 D-luciferin (Nanolight) 48 h after infection, and cells were incubated in the dark at 20 °C for 2 h. Basal luminescence was detected using a Tristar 2 LB 942 multimode reader (Berthold) until it reached a plateau. Subsequently, various concentrations of odorants and forskolin (Sigma-Aldrich) were added to each well, and luminescence was measured again. Data were analyzed and plotted using GraphPad Prism 9.4.1.
# OR52cs G201V = experiment: cAMP signaling assay, mutant; conditions: Fig. 3d
# Procedure: as §1, §2
# OR52cs H107A = experiment: cAMP signaling assay, mutant
# Procedure: as §1, §2
# OR52cs H183A = experiment: cAMP signaling assay, mutant; conditions: for cAMP response: Fig.3d source data, single experiments
# Procedure: as §1, §2
# OR52cs R265A [2] = experiment: cAMP signaling assay, mutant
# Procedure: as §1, §2
# OR52cs V158F/V209M = experiment: cAMP signaling assay, mutant; conditions: for cAMP response: Fig.S8b source data, single experiments
# Procedure: as §1, §2
# OR52cs V158F = experiment: cAMP signaling assay, mutant; conditions: for cAMP response: Fig.S8b source data, single experiments
# Procedure: as §1, §2
# OR52cs Y282A = experiment: cAMP signaling assay, mutant; conditions: odorant 0.001 M; Fig.S13b source data, single experiments
# Procedure: as §1, §2
# OR52cs F261A = experiment: cAMP signaling assay, mutant; design: cAMP response: scale not given here; conditions: for cAMP response: Fig.3d source data, single experiments
# Procedure: as §1, §2
# OR52cs H264A = experiment: cAMP signaling assay, mutant; design: cAMP response: scale not given here; conditions: for cAMP response: Fig.S13b source data, single experiments
# Procedure: as §1, §2
# OR52cs H275A = experiment: cAMP signaling assay, mutant; design: cAMP response: scale not given here; conditions: for cAMP response: Fig.S13b source data, single experiments
# Procedure: as §1, §2
# OR52cs I208A = experiment: cAMP signaling assay, mutant; design: cAMP response: scale not given here; conditions: for cAMP response: Fig.3d source data, single experiments
# Procedure: as §1, §2
# OR52cs S114A = experiment: cAMP signaling assay, mutant; design: cAMP response: scale not given here; conditions: for cAMP response: Fig.S13b source data, single experiments
# Procedure: as §1, §2
# OR52cs T110A = experiment: cAMP signaling assay, mutant; design: cAMP response: scale not given here; conditions: for cAMP response: Fig.3d source data, single experiments
# Procedure: as §1, §2
# OR52cs R265A [3] = experiment: CRE luciferase assay in Hana3A cells, mutant; conditions: 100 µM carboxylic acid; Fig.S7a, single experiments
# Procedure: as §1
# 48 h after infection, cells were treated with odorants and incubated at 37 °C for 4 h. […] All values were divided by the Renilla luciferase activity to normalize the effect of cell confluence. All data were analyzed using GraphPad Prism 9.4.1.
# OR52cs / Gαolf = experiment: BRET assay, G protein recruitment to OR52cs; conditions: 500 µM OCA; Gαolf-Rluc; Fig.S2a, single experiments; listed as OCA
# Procedure: as §1
# (§3) All signaling assays were performed in Hana3A cells, which were kindly provided by Dr. Matsunami. Cells were seeded on 6-well clear plate (SPL) and co-transfected with OR52cs-eYFP, Gαs-Rluc or Gαolf-Rluc, Gβ1 and Gγ2 at a 5:1:1:1 ratio. 48 h after infection, cells were collected and resuspended with PBS. 500 μM of OCA was treated to the cells, and cells were transferred to 96-well white microplate (SPL). Coelenterazine H (Nanolight) was added to each well at a final concentration of 10 μM and luminescence was measured using a Tristar 2 LB 942 multimode reader (Berthold). Data were analyzed using GraphPad Prism 9.4.1.
# OR52cs / Gαs = experiment: BRET assay, G protein recruitment to OR52cs; conditions: 500 µM OCA; Gαs-Rluc; Fig.S2a, single experiments; listed as OCA
# Procedure: as §1, §3
smiles,measurement,setting,value
"CCCCCCCC(=O)O [Octanoate, octanoic acid]",cAMP response (in words),[1]; Fig. 2c,significantly reduced cAMP response
same,X-fold over OR52cs (relative fold of EC50),[1]; Supplementary Table 3,26.3
same,EC50,"[1]; Supplementary Table 3, N=3",208 µM
same,downstream signaling (in words),OR52cs G201V,loss of OCA signaling
same,downstream signaling (in words),OR52cs H107A; Fig. 3d,significantly reduced downstream signaling
same,X-fold over OR52cs (relative fold of EC50),OR52cs H107A; Supplementary Table 3,23.7
same,EC50,"OR52cs H107A; Supplementary Table 3, N=3",187 µM
same,cAMP response,"OR52cs H107A; odorant 9.18274e-7 M, Fig.3d source data, single experiments",2.018 and 1.83 and 1.279
same,EC50,"OR52cs H183A; Supplementary Table 3, N=3",41.4 µM
same,pEC50 ± SEM,"OR52cs H183A; Supplementary Table 3, N=3",4.154 ± 0.087
same,cAMP response,OR52cs H183A; odorant 0.0001 M,48.2985 and 50.8568 and 78.4687
same,cAMP response,OR52cs H183A; odorant 0.001 M,61.0348 and 75.0061 and 91.5473
same,downstream signaling (in words),OR52cs R265A [2]; Fig. 3d,complete loss of downstream signaling
same,cAMP response,"OR52cs R265A [2]; odorant 9.18274e-6 M, Fig.3d source data, single experiments",1.026 and 1.808
same,response / preference (in words),OR52cs V158F/V209M; Supplementary Fig. 8,preference for OCA was maintained
same,cAMP response,OR52cs V158F/V209M; odorant 9.18274e-8 M,1.119% and 0.2182% and 0.3359% and 1.739%
same,cAMP response,OR52cs V158F/V209M; odorant 9.18274e-7 M,6.95% and 4.269% and 3.744% and 7.839% and 6.948%
same,cAMP response,OR52cs V158F/V209M; odorant 9.18274e-6 M,37.3813% and 30.814% and 31.4615% and 45.1116% and 40.3488%
same,cAMP response,OR52cs V158F/V209M; odorant 3.0303e-5 M,96.8852% and 89.0601% and 97.4121% and 90.3953% and 94.2682%
same,cAMP response,OR52cs V158F/V209M; odorant 0.0001 M,87.6893% and 101.186% and 102.533% and 86.5504% and 88.6049%
same,cAMP response,OR52cs V158F/V209M; odorant 0.001 M,79.2271% and 94.3185% and 104.414% and 103.193% and 74.9407%
same,downstream signal / selectivity (in words),OR52cs V158F; Supplementary Fig. 8,greatly reduced the downstream signal
same,cAMP response,OR52cs V158F; odorant 9.18274e-8 M,-0.2745% and -0.4519% and -0.2741%
same,cAMP response,OR52cs V158F; odorant 9.18274e-7 M,-1.206% and -1.168% and -3.0916%
same,cAMP response,OR52cs V158F; odorant 9.18274e-6 M,1.8013% and 0.5178% and -1.853%
same,cAMP response,OR52cs V158F; odorant 3.0303e-5 M,11.8948% and 7.17% and 7.559%
same,cAMP response,OR52cs V158F; odorant 0.0001 M,32.9355% and 23.3075% and 28.8455%
same,cAMP response,OR52cs V158F; odorant 0.001 M,85.6572% and 61.8428% and 79.0275%
same,cAMP response,OR52cs Y282A,0.7944 and 0.7429 and 0.9514
same,downstream signaling (in words),OR52cs F261A; Fig. 3d,significantly reduced downstream signaling
same,X-fold over OR52cs (relative fold of EC50),OR52cs F261A; Supplementary Table 3,64.0
same,EC50,"OR52cs F261A; Supplementary Table 3, N=3",506 µM
same,pEC50 ± SEM,"OR52cs F261A; Supplementary Table 3, N=3",3.326 ± 1.547
same,cAMP response,OR52cs F261A; odorant 9.18274e-7 M,3.451 and 3.066 and 1.971
same,cAMP response,OR52cs F261A; odorant 3.0303e-5 M,5.756 and 6.219 and 11.0254
same,cAMP response,OR52cs F261A; odorant 0.001 M,66.0962 and 58.1347 and 77.5545
same,EC50,OR52cs H264A; Supplementary Fig. 13b,60 µM
same,cAMP response,OR52cs H264A; odorant 9.18274e-6 M,4.615 and 4.081 and 4.27
same,cAMP response,OR52cs H264A; odorant 3.0303e-5 M,14.0038 and 11.3214 and 12.3984
same,cAMP response,OR52cs H264A; odorant 0.0001 M,28.5965 and 25.2729 and 26.8638
same,cAMP response,OR52cs H264A; odorant 0.001 M,40.8869 and 35.5267 and 36.771
same,EC50,OR52cs H275A; Supplementary Fig. 13b,67 µM
same,cAMP response,OR52cs H275A; odorant 9.18274e-7 M,1.163 and 1.2177 and 0.8093
same,cAMP response,OR52cs H275A; odorant 9.18274e-6 M,12.1088 and 9.48 and 7.718
same,cAMP response,OR52cs H275A; odorant 3.0303e-5 M,33.8567 and 32.1825 and 24.2227
same,cAMP response,OR52cs H275A; odorant 0.0001 M,62.7151 and 60.5238 and 53.5809
same,cAMP response,OR52cs H275A; odorant 0.001 M,101.549 and 94.9309 and 77.7131
same,X-fold over OR52cs (relative fold of EC50),OR52cs I208A; Supplementary Table 3,0.65
same,EC50,"OR52cs I208A; Supplementary Table 3, N=3",5.1 µM
same,pEC50 ± SEM,"OR52cs I208A; Supplementary Table 3, N=3",5.321 ± 0.119
same,cAMP response,OR52cs I208A; odorant 9.18274e-7 M,9.649 and 7.873 and 7.984
same,cAMP response,OR52cs I208A; odorant 9.18274e-6 M,74.2921 and 59.9569
same,cAMP response,OR52cs I208A; odorant 3.0303e-5 M,118.216 and 87.9298 and 99.5696
same,cAMP response,OR52cs I208A; odorant 0.0001 M,123.062 and 85.14 and 99.773
same,cAMP response,OR52cs I208A; odorant 0.001 M,115.233 and 86.0111 and 85.4934
same,EC50,OR52cs S114A; Supplementary Fig. 13b,54 µM
same,cAMP response,OR52cs S114A; odorant 9.18274e-7 M,0.7937 and 0.8194 and 1.08
same,cAMP response,OR52cs S114A; odorant 9.18274e-6 M,9.728 and 8.57 and 11.8154
same,cAMP response,OR52cs S114A; odorant 3.0303e-5 M,42.675 and 40.9596 and 54.3071
same,cAMP response,OR52cs S114A; odorant 0.0001 M,71.9561 and 66.6762 and 91.932
same,cAMP response,OR52cs S114A; odorant 0.001 M,103.979 and 112.532 and 126.832
same,X-fold over OR52cs (relative fold of EC50),OR52cs T110A; Supplementary Table 3,2.9
same,EC50,"OR52cs T110A; Supplementary Table 3, N=3",22.7 µM
same,pEC50 ± SEM,"OR52cs T110A; Supplementary Table 3, N=3",4.293 ± 0.098
same,cAMP response,OR52cs T110A; odorant 3.0303e-5 M,45.9718 and 31.6697 and 55.6315
same,cAMP response,OR52cs T110A; odorant 0.0001 M,55.3228 and 56.0506 and 78.0827
same,cAMP response,OR52cs T110A; odorant 0.001 M,63.5049 and 61.123 and 88.9664
same,relative fold (luciferase activity over DMSO),OR52cs R265A [3],1.143 fold and 0.8826 fold and 1.532 fold and 1.19 fold
same,ΔBRET (OCA- minus vehicle-treated BRET signal),OR52cs / Gαolf,0.01011 and 0.01399 and 0.007869 and 0.00957 and 0.01164
same,ΔBRET (OCA- minus vehicle-treated BRET signal),OR52cs / Gαs,0.0184 and 0.01592 and 0.01247 and 0.01013 and 0.01218
